Data as given in ChEMBL document CHEMBL1157536, “Improvement of meta-tetra(hydroxyphenyl)chlorin-like photosensitizer selectivity with folate-based targeted delivery. synthesis and in vivo delivery studies” (J Med Chem, 2008).

Legend:
Conditions in all cases: in vivo
[1] = Ratio of drug uptake in tumor to skin in folate receptor deficient HT29 cells xenografted athymic Swiss nude mouse with folate free diet assessed as fluorescence accumulation by UV-visible spectrophotometer; assay type: ADME, cell-based, HT-29
[2] = Ratio of drug uptake in tumor to skin in folate receptor deficient HT29 cells xenografted athymic Swiss nude mouse with folate diet assessed as fluorescence accumulation by UV-visible spectrophotometer; assay type: ADME, cell-based, HT-29
[3] = Ratio of drug uptake in tumor to skin in human KB cells expressing folate receptor xenografted athymic Swiss nude mouse with folate diet assessed as fluorescence accumulation by UV-visible spectrophotometer; assay type: ADME, cell-based
[4] = Ratio of drug uptake in tumor to skin in human KB cells expressing folate receptor xenografted athymic Swiss nude mouse with folate free diet assessed as fluorescence accumulation by UV-visible spectrophotometer; assay type: ADME, cell-based

Ratio [1]	Ratio [2]	Ratio [3]	Ratio [4]	SMILES
3.7	1.1	2.8	2.1	O=C(O)c1ccc(-c2c3nc(c(-c4cccc(O)c4)c4ccc([nH]4)c(-c4cccc(O)c4)c4nc(c(-c5cccc(O)c5)c5ccc2[nH]5)C=C4)CC3)cc1
1	2.1	1.9	5	Nc1nc(O)c2nc(CNc3ccc(C(=O)NC(CCC(=O)NCCOCCOCCNC(=O)c4ccc(-c5c6nc(c(-c7cccc(O)c7)c7ccc([nH]7)c(-c7cccc(O)c7)c7nc(c(-c8cccc(O)c8)c8ccc5[nH]8)C=C7)CC6)cc4)C(=O)O)cc3)cnc2n1 (stereo not drawn)
